Like-named read-outs stand apart in the source and are kept apart here.
Tests used:
Assay in all cases: DiscoverX KINOMEscan kinase profiling (468 assays)
Format in all cases: binding
[1] = biological target: human kinome (Homo sapiens, UniProt O15146); settings: MUSK; 100 nM; read-out: Percent Control
Method in brief: (§1)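 DNA-tagged kinases competed for immobilized biotinylated ligands on streptavidin magnetic beads, with bound kinase quantified by qPCR. VIP152 in DMSO was tested against a DMSO control.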

[2] = biological target: human kinome (Homo sapiens, UniProt O94806); settings: read-out: Percent Control
Sequence of human kinome (Homo sapiens, UniProt O94806) (O94806 whole entry): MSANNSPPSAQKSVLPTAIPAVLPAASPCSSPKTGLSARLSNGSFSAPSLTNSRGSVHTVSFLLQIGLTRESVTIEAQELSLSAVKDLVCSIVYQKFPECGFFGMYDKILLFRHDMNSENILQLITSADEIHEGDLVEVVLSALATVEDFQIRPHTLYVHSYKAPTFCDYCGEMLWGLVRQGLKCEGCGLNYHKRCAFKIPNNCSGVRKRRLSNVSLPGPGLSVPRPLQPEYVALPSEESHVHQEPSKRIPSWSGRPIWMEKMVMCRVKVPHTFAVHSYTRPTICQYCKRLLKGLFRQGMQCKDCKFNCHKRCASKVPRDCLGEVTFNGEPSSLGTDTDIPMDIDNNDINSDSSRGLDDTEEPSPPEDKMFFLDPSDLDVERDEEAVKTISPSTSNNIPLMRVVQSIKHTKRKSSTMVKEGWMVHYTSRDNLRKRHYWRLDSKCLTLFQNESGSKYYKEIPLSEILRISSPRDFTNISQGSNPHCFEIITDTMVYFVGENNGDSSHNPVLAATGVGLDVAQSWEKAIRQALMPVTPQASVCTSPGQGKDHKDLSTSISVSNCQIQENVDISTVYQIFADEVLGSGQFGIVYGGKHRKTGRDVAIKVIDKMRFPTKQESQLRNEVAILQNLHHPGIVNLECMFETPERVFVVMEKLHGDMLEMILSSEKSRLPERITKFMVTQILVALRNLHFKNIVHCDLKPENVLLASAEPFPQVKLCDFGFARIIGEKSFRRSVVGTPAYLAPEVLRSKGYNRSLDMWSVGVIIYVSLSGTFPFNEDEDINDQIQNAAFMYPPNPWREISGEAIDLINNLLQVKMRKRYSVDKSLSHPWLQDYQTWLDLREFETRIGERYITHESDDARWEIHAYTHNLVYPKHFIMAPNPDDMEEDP
Method in brief: as §1

[3] = biological target: human kinome (Homo sapiens, UniProt P07949); settings: kinase RET (Entrez RET); compound concentration 1000 nM; read-out: Percent Control
Method in brief: as §1

[4] = biological target: human kinome (Homo sapiens, UniProt P11362); settings: FGFR1; 100 nM; read-out: Percent Control
Method in brief: as §1

[5] = biological target: human kinome (Homo sapiens, UniProt P17948); settings: FLT1; 100 nM; read-out: Percent Control
Method in brief: as §1

[6] = biological target: human kinome (Homo sapiens, UniProt P29322); settings: EPHA8; 100 nM; read-out: Percent Control
Method in brief: as §1

[7] = biological target: human kinome (Homo sapiens, UniProt P35590); settings: kinase TIE1 (Entrez TIE1); compound concentration 1000 nM; read-out: Percent Control
Method in brief: as §1

[8] = biological target: human kinome (Homo sapiens, UniProt P36888, N841I); settings: FLT3(N841I); 100 nM; read-out: Percent Control
Method in brief: as §1

[9] = biological target: human kinome (Homo sapiens, UniProt P42336, I800L); settings: read-out: Percent Control
Sequence of human kinome (Homo sapiens, UniProt P42336, I800L) (P42336 whole entry I800L): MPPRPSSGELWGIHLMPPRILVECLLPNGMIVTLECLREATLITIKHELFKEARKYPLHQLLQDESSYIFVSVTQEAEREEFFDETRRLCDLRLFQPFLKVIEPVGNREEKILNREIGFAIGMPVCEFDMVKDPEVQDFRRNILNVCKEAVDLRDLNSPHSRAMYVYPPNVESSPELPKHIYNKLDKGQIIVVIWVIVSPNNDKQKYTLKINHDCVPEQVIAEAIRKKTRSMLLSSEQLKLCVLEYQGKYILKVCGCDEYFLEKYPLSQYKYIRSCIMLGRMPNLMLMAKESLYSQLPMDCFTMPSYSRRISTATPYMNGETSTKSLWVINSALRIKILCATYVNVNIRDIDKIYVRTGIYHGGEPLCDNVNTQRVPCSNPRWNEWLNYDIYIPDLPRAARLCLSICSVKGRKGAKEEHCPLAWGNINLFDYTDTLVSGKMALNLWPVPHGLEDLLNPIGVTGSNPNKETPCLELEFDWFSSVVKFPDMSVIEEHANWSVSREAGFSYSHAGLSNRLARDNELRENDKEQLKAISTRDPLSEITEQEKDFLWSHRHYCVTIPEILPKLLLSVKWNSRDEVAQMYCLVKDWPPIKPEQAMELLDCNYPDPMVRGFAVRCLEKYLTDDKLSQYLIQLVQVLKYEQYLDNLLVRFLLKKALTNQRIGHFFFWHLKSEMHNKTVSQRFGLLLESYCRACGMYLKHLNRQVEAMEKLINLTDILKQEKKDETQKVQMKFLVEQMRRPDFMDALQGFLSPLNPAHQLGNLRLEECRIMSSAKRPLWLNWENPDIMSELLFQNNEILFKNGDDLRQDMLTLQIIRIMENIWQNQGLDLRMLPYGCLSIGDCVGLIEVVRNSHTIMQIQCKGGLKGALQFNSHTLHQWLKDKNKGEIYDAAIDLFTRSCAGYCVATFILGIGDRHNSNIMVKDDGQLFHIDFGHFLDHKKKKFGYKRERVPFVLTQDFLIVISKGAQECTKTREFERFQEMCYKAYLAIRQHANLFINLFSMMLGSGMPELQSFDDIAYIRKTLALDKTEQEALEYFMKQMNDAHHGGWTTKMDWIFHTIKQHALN
Method in brief: as §1

[10] = biological target: human kinome (Homo sapiens, UniProt P46734); settings: MEK3 (Entrez MAP2K3); 100 nM; read-out: Percent Control
Method in brief: as §1

[11] = biological target: human kinome (Homo sapiens, UniProt P51451); settings: BLK; 100 nM; read-out: Percent Control
Method in brief: as §1

[12] = biological target: human kinome (Homo sapiens, UniProt P51812); settings: compound concentration 1000 nM, read-out: Percent Control
Sequence of human kinome (Homo sapiens, UniProt P51812) (P51812 whole entry): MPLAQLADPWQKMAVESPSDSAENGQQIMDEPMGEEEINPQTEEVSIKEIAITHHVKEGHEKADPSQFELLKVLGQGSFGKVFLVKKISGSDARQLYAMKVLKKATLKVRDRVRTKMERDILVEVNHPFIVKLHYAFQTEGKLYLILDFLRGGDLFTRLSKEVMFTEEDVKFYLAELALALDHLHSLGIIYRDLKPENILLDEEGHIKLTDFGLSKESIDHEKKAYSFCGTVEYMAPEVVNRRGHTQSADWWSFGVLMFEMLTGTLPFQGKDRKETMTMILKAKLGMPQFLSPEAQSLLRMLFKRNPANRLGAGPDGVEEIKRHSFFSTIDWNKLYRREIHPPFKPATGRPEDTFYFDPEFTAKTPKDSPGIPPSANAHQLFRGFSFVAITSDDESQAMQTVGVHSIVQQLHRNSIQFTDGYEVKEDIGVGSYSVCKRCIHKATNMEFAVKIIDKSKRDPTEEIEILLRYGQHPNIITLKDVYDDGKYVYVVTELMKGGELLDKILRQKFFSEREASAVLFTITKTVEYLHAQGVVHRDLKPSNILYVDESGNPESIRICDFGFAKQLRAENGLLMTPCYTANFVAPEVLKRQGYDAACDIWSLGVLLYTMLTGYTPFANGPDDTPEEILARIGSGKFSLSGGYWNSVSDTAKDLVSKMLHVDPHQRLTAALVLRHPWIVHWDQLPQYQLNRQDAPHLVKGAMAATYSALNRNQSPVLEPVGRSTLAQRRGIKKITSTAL
Method in brief: as §1

[13] = biological target: human kinome (Homo sapiens, UniProt Q00526); settings: CDK3; 100 nM; read-out: Percent Control
Method in brief: as §1

[14] = biological target: human kinome (Homo sapiens, UniProt Q02750); settings: MEK1 (Entrez MAP2K1); 100 nM; read-out: Percent Control
Method in brief: as §1

[15] = biological target: human kinome (Homo sapiens, UniProt Q12852); settings: DLK (Entrez MAP3K12); 100 nM; read-out: Percent Control
Method in brief: as §1

[16] = biological target: human kinome (Homo sapiens, UniProt Q12866); settings: MERTK; 100 nM; read-out: Percent Control
Method in brief: as §1

[17] = biological target: human kinome (Homo sapiens, UniProt Q13164); settings: ERK5 (Entrez MAPK7); 100 nM; read-out: Percent Control
Method in brief: as §1

[18] = biological target: human kinome (Homo sapiens, UniProt Q13976); settings: read-out: Percent Control
Sequence of human kinome (Homo sapiens, UniProt Q13976) (Q13976 whole entry): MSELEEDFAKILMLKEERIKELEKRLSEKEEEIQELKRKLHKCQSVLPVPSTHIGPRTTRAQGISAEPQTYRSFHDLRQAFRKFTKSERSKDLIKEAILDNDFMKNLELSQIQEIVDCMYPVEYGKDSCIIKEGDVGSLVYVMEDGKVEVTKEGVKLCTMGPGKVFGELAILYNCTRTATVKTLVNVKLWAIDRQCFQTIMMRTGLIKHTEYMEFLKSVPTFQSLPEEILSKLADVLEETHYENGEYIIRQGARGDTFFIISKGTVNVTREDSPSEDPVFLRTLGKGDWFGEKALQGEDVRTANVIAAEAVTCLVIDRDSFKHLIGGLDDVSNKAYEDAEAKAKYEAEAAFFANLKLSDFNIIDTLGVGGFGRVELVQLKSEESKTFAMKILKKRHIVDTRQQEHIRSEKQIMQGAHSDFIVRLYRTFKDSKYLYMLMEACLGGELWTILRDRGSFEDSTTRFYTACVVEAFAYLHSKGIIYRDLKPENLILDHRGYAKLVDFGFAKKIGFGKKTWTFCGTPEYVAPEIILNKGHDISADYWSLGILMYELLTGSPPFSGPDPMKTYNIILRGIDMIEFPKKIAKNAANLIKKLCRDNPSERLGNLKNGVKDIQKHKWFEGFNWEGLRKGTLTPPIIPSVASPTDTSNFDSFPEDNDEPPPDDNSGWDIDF
Method in brief: as §1

[19] = biological target: human kinome (Homo sapiens, UniProt Q14012); settings: CAMK1; 100 nM; read-out: Percent Control
Method in brief: as §1

[20] = biological target: human kinome (Homo sapiens, UniProt Q15303); settings: ERBB4; 100 nM; read-out: Percent Control
Method in brief: as §1

[21] = biological target: human kinome (Homo sapiens, UniProt Q16566); settings: CAMK4; 100 nM; read-out: Percent Control
Method in brief: as §1

[22] = biological target: human kinome (Homo sapiens, UniProt Q6ZN16); settings: MAP3K15; 100 nM; read-out: Percent Control
Method in brief: as §1

[23] = biological target: human kinome (Homo sapiens, UniProt Q86YV6); settings: read-out: Percent Control
Sequence of human kinome (Homo sapiens, UniProt Q86YV6) (Q86YV6 whole entry): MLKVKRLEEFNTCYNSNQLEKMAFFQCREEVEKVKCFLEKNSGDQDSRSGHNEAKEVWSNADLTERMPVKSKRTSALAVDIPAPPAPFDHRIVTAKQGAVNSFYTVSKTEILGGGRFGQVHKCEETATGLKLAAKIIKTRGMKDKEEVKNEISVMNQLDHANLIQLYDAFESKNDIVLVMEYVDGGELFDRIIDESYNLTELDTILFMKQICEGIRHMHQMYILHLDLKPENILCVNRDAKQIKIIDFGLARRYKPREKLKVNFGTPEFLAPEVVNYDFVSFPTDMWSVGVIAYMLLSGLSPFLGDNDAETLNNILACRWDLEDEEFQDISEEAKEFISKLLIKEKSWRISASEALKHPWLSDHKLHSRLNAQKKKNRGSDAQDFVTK
Method in brief: as §1

[24] = biological target: human kinome (Homo sapiens, UniProt Q9C098); settings: DCAMKL3 (Entrez DCLK3); 100 nM; read-out: Percent Control
Method in brief: as §1

[25] = biological target: human kinome (Homo sapiens, UniProt Q9H093); settings: kinase SNARK (Entrez NUAK2); compound concentration 1000 nM; read-out: Percent Control
Method in brief: as §1

[26] = biological target: human kinome (Homo sapiens, UniProt Q9H422); settings: HIPK3; 100 nM; read-out: Percent Control
Method in brief: as §1

[27] = biological target: human kinome (Homo sapiens, UniProt Q9P2K8, S808G); settings: GCN2(Kin.Dom.2,S808G) (Entrez EIF2AK4); 100 nM; read-out: Percent Control
Method in brief: as §1

[28] = biological target: human kinome (Homo sapiens, UniProt Q9UBE8); settings: read-out: Percent Control
Sequence of human kinome (Homo sapiens, UniProt Q9UBE8) (Q9UBE8 whole entry): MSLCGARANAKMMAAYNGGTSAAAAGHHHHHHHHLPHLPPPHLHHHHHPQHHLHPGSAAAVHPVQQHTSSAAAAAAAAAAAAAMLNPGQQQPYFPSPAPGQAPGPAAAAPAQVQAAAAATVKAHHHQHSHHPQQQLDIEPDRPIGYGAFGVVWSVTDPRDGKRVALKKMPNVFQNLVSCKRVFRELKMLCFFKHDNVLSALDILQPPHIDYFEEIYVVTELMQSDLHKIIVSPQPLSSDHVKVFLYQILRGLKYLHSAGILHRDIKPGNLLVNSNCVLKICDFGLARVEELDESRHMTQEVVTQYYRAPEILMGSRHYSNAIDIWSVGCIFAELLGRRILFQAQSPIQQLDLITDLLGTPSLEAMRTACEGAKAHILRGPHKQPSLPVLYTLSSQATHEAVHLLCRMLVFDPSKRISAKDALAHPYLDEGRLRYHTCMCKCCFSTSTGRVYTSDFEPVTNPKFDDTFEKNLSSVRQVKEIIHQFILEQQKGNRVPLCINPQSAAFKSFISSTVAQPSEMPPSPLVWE
Method in brief: as §1

[29] = biological target: human kinome (Homo sapiens, UniProt Q9Y463); settings: DYRK1B; 100 nM; read-out: Percent Control
Sequence of human kinome (Homo sapiens, UniProt Q9Y463) (Q9Y463 whole entry): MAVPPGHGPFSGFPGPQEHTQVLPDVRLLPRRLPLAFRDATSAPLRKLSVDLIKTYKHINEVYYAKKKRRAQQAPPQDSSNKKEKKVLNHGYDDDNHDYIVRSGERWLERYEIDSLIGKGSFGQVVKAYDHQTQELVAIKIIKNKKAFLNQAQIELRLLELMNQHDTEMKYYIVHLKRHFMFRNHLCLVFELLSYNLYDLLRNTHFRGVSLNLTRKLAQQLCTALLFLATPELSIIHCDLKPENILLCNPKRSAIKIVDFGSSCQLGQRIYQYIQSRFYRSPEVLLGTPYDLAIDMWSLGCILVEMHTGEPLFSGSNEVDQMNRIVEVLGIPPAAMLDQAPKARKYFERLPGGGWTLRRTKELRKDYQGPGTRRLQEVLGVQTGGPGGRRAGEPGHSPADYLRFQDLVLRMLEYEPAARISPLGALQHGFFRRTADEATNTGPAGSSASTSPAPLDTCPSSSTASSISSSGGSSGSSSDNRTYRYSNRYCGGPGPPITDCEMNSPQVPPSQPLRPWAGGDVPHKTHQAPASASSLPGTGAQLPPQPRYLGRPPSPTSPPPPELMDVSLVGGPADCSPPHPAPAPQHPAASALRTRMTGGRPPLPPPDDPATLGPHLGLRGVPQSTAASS
Method in brief: as §1

[30] = biological target: human kinome (Homo sapiens, UniProt Q9Y5S2); settings: MRCKB (Entrez CDC42BPB); 100 nM; read-out: Percent Control
Method in brief: as §1

Compound: COc1cc(F)ccc1-c1cc(Nc2cc(CS(C)(=N)=O)ccn2)ncc1F (stereo not drawn) [VIP152]
- remaining binding at 0.1 µM [1]: 99%
- remaining binding at 0.1 µM ([2]; PRKD3, 100 nM): 91%
- remaining binding at 1 µM ([2]; kinase PRKD3 (Entrez PRKD3), compound concentration 1000 nM): 100%
- remaining binding at 1 µM [3]: 94%
- remaining binding at 0.1 µM [4]: 100%
- remaining binding at 0.1 µM [5]: 100%
- remaining binding at 0.1 µM [6]: 100%
- remaining binding at 1 µM [7]: 76%
- remaining binding at 0.1 µM [8]: 66%
- remaining binding at 0.1 µM ([9]; PIK3CA(I800L), 100 nM): 100%
- remaining binding at 1 µM ([9]; kinase PIK3CA(I800L) (Entrez PIK3CA), compound concentration 1000 nM): 98%
- remaining binding at 0.1 µM [10]: 100%
- remaining binding at 0.1 µM [11]: 100%
- remaining binding at 1 µM ([12]; kinase RSK2(Kin.Dom.1-N-terminal) (Entrez RPS6KA3)): 60%
- remaining binding at 1 µM ([12]; kinase RSK2(Kin.Dom.2-C-terminal) (Entrez RPS6KA3)): 80%
- remaining binding at 0.1 µM [13]: 100%
- remaining binding at 0.1 µM [14]: 100%
- remaining binding at 0.1 µM [15]: 100%
- remaining binding at 0.1 µM [16]: 100%
- remaining binding at 0.1 µM [17]: 100%
- remaining binding at 0.1 µM ([18]; PRKG1, 100 nM): 100%
- remaining binding at 1 µM ([18]; kinase PRKG1 (Entrez PRKG1), compound concentration 1000 nM): 91%
- remaining binding at 0.1 µM [19]: 100%
- remaining binding at 0.1 µM [20]: 100%
- remaining binding at 0.1 µM [21]: 100%
- remaining binding at 0.1 µM [22]: 100%
- remaining binding at 0.1 µM ([23]; MYLK4, 100 nM): 100%
- remaining binding at 1 µM ([23]; kinase MYLK4 (Entrez MYLK4), compound concentration 1000 nM): 89%
- remaining binding at 0.1 µM [24]: 100%
- remaining binding at 1 µM [25]: 78%
- remaining binding at 0.1 µM [26]: 100%
- remaining binding at 0.1 µM [27]: 96%
- remaining binding at 0.1 µM ([28]; NLK, 100 nM): 100%
- remaining binding at 1 µM ([28]; kinase NLK (Entrez NLK), compound concentration 1000 nM): 59%
- remaining binding at 0.1 µM [29]: 100%
- remaining binding at 0.1 µM [30]: 100%

— paper PMC9898036, “VIP152 is a selective CDK9 inhibitor with pre-clinical in vitro and in vivo efficacy in chronic lymphocytic leukemia” (Leukemia, 2022)
